In the kinase profiling compilation of Christmann-Franck et al. (2016):

Tests used:
Test in all cases: KINOMEscan competition binding
Conditions in all cases: compound 1.0 µM
[1] = target: TYK2 JH1 catalytic (human) (UniProt P29597)
AURKA (human) = AURKA (human) (UniProt O14965)
CDC42BPG (human) = CDC42BPG (human) (UniProt Q6DT37)
[2] = test system: EGFR (human), P00533 [G719S]
MINK1 (human) = MINK1 (human) (UniProt Q8N4C8)
MARK1 (human) = MARK1 (human) (UniProt Q9P0L2)
MAP3K13 (human) = MAP3K13 (human) (UniProt O43283)
MAP3K13 (human), sequence (O43283 whole entry, looked up): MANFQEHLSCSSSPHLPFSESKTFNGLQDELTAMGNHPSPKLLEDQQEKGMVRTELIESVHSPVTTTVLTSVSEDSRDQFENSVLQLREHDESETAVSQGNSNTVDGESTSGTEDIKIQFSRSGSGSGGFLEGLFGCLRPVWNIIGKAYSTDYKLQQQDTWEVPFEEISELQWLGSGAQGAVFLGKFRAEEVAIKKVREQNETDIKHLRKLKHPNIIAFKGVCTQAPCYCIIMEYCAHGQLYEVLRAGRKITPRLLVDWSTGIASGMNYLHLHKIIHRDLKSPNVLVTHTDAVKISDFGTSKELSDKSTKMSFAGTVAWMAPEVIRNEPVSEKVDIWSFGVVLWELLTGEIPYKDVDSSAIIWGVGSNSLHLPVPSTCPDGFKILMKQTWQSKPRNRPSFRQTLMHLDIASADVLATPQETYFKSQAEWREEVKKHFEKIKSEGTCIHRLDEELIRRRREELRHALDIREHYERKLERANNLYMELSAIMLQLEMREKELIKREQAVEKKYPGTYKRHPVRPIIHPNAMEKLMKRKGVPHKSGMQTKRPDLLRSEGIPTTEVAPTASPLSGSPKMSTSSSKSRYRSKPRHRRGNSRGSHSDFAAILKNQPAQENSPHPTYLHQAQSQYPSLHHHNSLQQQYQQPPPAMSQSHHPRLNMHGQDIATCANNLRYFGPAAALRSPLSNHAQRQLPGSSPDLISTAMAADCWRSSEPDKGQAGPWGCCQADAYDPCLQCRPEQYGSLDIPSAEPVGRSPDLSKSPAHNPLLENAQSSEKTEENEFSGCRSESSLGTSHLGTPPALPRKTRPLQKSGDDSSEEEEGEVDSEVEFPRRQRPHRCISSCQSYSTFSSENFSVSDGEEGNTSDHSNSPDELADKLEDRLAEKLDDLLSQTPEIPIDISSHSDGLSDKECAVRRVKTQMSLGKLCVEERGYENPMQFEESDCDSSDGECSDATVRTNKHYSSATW

PRKAA2 (human) = PRKAA2 (human) (UniProt P54646)
TLK2 (human) = TLK2 (human) (UniProt Q86UE8)
PLK2 (human) = PLK2 (human) (UniProt Q9NYY3)
BRAF (human) = BRAF (human) (UniProt P15056)
[3] = target: JAK2 JH1 catalytic (human) (UniProt O60674)
FYN (human) = FYN (human) (UniProt P06241)
MAPKAPK2 (human) = MAPKAPK2 (human) (UniProt P49137)
MAPKAPK2 (human), sequence (P49137 whole entry, looked up): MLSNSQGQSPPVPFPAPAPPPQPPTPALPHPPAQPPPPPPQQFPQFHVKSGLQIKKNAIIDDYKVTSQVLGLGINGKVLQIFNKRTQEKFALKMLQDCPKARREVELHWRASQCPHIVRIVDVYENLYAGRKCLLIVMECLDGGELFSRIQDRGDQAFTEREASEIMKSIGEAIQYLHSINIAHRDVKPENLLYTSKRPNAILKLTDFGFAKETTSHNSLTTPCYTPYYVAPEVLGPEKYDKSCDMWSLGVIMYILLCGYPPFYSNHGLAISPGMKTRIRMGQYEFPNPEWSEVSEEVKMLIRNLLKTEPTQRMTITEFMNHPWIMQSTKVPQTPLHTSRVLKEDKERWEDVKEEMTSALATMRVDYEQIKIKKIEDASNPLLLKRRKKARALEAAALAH

DCLK2 (human) = DCLK2 (human) (UniProt Q8N568)
CHUK (human) = CHUK (human) (UniProt O15111)
ACVRL1 (human) = ACVRL1 (human) (UniProt P37023)
SIK3 (human) = SIK3 (human) (UniProt Q9Y2K2)
SIK3 (human), sequence (Q9Y2K2 whole entry, looked up): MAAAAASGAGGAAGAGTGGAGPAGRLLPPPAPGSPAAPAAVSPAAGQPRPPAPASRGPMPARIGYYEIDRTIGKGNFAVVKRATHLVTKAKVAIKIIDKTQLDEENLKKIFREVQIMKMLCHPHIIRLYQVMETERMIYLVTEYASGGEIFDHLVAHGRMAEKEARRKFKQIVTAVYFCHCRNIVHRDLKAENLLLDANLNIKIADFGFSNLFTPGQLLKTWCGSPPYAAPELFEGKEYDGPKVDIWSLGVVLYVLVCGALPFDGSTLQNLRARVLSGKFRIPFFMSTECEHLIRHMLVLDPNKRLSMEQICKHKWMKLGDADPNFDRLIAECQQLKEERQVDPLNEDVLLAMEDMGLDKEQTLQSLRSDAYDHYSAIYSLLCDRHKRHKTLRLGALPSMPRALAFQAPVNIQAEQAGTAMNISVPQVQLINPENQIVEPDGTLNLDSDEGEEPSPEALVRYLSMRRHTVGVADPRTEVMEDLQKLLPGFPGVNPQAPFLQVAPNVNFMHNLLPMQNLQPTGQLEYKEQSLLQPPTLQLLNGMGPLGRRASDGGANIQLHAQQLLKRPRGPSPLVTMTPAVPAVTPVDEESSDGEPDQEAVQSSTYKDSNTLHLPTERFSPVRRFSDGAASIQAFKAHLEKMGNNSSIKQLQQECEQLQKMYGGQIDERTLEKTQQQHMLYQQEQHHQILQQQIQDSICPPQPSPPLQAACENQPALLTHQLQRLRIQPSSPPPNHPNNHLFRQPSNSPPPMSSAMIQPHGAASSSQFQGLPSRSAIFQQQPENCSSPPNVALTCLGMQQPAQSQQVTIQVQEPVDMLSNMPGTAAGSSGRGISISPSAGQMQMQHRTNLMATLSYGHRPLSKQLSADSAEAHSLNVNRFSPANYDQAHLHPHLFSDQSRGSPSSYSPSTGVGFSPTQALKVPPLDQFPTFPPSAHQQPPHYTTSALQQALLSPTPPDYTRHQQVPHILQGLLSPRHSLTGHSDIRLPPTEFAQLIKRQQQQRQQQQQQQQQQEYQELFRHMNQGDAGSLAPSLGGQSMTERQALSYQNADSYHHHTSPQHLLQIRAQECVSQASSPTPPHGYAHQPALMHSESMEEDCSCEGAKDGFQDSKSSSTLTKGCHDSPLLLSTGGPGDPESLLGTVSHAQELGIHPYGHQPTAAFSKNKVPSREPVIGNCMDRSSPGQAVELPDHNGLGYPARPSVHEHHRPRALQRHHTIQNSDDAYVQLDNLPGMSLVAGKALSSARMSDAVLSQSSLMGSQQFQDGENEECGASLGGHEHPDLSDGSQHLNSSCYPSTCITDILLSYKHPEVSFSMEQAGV

ADCK3 (human) = ADCK3 (human) (UniProt Q8NI60)
MAPK3 (human) = MAPK3 (human) (UniProt P27361)
MAPK3 (human), sequence (P27361 whole entry, looked up): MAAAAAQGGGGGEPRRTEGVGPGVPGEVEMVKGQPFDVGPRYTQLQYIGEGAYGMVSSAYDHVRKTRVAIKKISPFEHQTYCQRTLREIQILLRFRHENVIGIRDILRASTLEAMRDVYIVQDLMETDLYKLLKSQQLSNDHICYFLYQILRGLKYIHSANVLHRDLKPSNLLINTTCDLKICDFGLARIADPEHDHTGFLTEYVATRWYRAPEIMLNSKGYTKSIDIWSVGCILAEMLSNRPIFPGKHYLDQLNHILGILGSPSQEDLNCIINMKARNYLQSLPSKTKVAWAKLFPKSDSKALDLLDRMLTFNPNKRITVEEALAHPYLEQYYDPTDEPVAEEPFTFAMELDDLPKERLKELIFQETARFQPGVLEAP

NUAK1 (human) = NUAK1 (human) (UniProt O60285)
CDK2 (human) = CDK2 (human) (UniProt P24941)
NEK9 (human) = NEK9 (human) (UniProt Q8TD19)
NEK9 (human), sequence (Q8TD19 whole entry, looked up): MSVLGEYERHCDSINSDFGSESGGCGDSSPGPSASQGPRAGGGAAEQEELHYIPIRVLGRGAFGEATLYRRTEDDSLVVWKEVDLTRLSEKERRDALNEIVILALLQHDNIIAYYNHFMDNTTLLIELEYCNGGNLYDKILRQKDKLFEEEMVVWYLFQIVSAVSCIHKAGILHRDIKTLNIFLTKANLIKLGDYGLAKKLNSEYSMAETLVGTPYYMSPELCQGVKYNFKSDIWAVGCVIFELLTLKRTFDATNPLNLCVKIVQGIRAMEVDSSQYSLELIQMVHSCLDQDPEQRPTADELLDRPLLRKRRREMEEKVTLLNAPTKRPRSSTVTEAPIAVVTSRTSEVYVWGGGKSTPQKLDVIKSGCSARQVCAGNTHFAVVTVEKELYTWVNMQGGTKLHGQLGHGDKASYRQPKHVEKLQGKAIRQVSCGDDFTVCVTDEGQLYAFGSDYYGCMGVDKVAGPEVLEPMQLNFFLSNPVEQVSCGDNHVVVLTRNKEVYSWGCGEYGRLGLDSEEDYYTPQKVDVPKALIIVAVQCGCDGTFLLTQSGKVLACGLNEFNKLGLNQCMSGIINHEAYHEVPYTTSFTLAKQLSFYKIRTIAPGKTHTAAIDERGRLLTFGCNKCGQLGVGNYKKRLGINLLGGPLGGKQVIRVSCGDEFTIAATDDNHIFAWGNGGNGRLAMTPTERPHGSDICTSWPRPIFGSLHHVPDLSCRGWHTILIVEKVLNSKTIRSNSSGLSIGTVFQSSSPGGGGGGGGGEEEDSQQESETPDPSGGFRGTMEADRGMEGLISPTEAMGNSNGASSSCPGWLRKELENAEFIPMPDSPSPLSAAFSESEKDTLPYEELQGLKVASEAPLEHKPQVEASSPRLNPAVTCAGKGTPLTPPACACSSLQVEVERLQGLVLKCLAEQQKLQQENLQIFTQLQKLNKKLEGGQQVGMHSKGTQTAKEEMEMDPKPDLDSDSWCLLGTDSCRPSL

STK38L (human) = STK38L (human) (UniProt Q9Y2H1)
ACVR2B (human) = ACVR2B (human) (UniProt Q13705)
[4] = test system: FLT3 (human), P36888 [ITD]
SYK (human) = SYK (human) (UniProt P43405)
MAPK10 (human) = MAPK10 (human) (UniProt P53779)
EPHB2 (human) = EPHB2 (human) (UniProt P29323)
CAMKK2 (human) = CAMKK2 (human) (UniProt Q96RR4)
TEK (human) = TEK (human) (UniProt Q02763)
DAPK1 (human) = DAPK1 (human) (UniProt P53355)
MYLK3 (human) = MYLK3 (human) (UniProt Q32MK0)
STK24 (human) = STK24 (human) (UniProt Q9Y6E0)
CSF1R (human) = CSF1R (human) (UniProt P07333)
CDK9 (human) = CDK9 (human) (UniProt P50750)
RIOK3 (human) = RIOK3 (human) (UniProt O14730)
STK32B (human) = STK32B (human) (UniProt Q9NY57)
STK32B (human), sequence (Q9NY57 whole entry, looked up): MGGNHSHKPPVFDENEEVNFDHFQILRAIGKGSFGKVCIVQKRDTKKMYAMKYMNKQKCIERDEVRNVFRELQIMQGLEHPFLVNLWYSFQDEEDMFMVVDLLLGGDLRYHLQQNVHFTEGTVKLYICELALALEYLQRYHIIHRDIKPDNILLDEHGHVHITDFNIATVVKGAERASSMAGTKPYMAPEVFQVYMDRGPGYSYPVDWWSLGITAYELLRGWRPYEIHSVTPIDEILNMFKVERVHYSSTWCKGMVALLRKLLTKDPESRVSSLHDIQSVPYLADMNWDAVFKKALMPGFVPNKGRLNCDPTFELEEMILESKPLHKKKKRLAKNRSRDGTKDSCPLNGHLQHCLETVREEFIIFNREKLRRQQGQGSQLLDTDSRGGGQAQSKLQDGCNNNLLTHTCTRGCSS

CIT (human) = CIT (human) (UniProt O14578)
MAPK4 (human) = MAPK4 (human) (UniProt P31152)

AURKA (human), sequence (O14965 whole entry, looked up): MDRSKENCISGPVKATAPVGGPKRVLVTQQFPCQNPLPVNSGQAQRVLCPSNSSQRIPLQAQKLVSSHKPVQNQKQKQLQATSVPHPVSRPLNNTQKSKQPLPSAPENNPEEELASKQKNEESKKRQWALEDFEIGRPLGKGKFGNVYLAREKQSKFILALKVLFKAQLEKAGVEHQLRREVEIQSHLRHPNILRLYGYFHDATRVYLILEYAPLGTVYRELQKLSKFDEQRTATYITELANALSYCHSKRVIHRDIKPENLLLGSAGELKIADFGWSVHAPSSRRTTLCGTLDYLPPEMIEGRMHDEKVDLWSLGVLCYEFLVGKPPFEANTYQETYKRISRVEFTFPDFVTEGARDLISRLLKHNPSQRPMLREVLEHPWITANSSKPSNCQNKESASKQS

Nc1cc(C(F)(F)F)c(-c2cc(N3CCOCC3)nc(N3CCOCC3)n2)cn1
inhibition of binding [1]: 0%
inhibition of binding (AURKA (human)): 0%
inhibition of binding (CDC42BPG (human)): 0%
inhibition of binding [2]: 10%
inhibition of binding (MINK1 (human)): 0%
inhibition of binding (MARK1 (human)): 0%
inhibition of binding (MAP3K13 (human)): 0%
inhibition of binding (PRKAA2 (human)): 0%
inhibition of binding (TLK2 (human)): 13%
inhibition of binding (PLK2 (human)): 0%
inhibition of binding (BRAF (human)): 18%
inhibition of binding [3]: 12%
inhibition of binding (FYN (human)): 0%
inhibition of binding (MAPKAPK2 (human)): 0%
inhibition of binding (DCLK2 (human)): 30%
inhibition of binding (CHUK (human)): 29%
inhibition of binding (ACVRL1 (human)): 38%
inhibition of binding (SIK3 (human)): 0%
inhibition of binding (ADCK3 (human)): 4%
inhibition of binding (MAPK3 (human)): 1%
inhibition of binding (NUAK1 (human)): 42%
inhibition of binding (CDK2 (human)): 30%
inhibition of binding (NEK9 (human)): 0%
inhibition of binding (STK38L (human)): 3%
inhibition of binding (ACVR2B (human)): 0%
inhibition of binding [4]: 0%
inhibition of binding (SYK (human)): 0%
inhibition of binding (MAPK10 (human)): 17%
inhibition of binding (EPHB2 (human)): 0%
inhibition of binding (CAMKK2 (human)): 0%
inhibition of binding (TEK (human)): 0%
inhibition of binding (DAPK1 (human)): 2%
inhibition of binding (MYLK3 (human)): 0%
inhibition of binding (STK24 (human)): 5%
inhibition of binding (CSF1R (human)): 0%
inhibition of binding (CDK9 (human)): 12%
inhibition of binding (RIOK3 (human)): 0%
inhibition of binding (STK32B (human)): 11%
inhibition of binding (CIT (human)): 0%
inhibition of binding (MAPK4 (human)): 0%
